Drawing on ChEMBL document CHEMBL5038589, “Design, Synthesis, and Structure-Activity Relationship of N-Aryl-N'-(thiophen-2-yl)thiourea Derivatives as Novel and Specific Human TLR1/2 Agonists for Potential Cancer Immunotherapy” (J Med Chem, 2021), this text covers Activity, EC50 and Kd for 51 molecules.

pEC50, pKd: −log10 of the molar value. Active and inactive are the calls of the source. The calls are words filed in the database; no cut-off is given here.

For the first assay, the target named is T1, Toll-like receptor 2 (Homo sapiens, UniProt O60603). The experiment in a line: Agonist activity at TLR2 in HEK-Blue cells upto 200 uM incubated for 24 hrs by Quanti-Blue based SEAP assay. Type of assay: cell-based. To be noted: HEK-Blue hTLR2, dose microM <=200, time 24.0 hrs.
T1 sequence (O60603 whole entry): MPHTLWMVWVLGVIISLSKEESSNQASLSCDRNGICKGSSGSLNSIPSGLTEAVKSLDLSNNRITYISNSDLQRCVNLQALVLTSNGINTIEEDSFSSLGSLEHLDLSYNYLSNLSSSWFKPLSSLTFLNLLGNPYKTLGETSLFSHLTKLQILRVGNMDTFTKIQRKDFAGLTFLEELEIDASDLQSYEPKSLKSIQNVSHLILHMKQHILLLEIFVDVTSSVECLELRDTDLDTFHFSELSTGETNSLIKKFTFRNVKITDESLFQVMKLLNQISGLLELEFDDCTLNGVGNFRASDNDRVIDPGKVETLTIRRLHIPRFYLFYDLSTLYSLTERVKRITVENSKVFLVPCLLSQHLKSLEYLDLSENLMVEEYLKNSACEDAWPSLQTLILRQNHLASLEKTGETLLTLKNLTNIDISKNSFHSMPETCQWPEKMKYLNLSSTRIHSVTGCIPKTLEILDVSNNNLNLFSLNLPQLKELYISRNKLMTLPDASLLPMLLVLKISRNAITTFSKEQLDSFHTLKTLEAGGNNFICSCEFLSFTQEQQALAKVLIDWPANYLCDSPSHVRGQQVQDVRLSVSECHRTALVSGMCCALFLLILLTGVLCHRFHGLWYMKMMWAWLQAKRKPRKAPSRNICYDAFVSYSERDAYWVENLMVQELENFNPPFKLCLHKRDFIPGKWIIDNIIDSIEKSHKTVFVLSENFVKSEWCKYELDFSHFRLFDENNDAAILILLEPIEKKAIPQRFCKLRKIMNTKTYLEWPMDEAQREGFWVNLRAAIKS
As to `CC(C)(C)OC(=O)c1c(NC(=S)Nc2cccc3ccccc23)sc2c1CCCC2`, the outcome was inactive.
For the molecule `CC(C)OC(=O)c1c(-c2ccccc2)csc1NC(=S)Nc1cccc2ccccc12`, the result was inactive.
In the case of `CCOC(=O)c1ccsc1NC(=S)Nc1cccc2ccccc12`, the result was inactive.
In the case of `CCOC(=O)c1c(NC(=O)Nc2ccc(Cl)c(Cl)c2)sc2c1CCC2`, the outcome was inactive.
For the molecule `COC(=O)c1c(NC(=O)Nc2ccc(C)cc2)sc2c1CCC2`, the result was inactive.
On to `O=C(O)c1c(NC(=S)Nc2cccc3ccccc23)sc2c1CCC2`, for which the outcome was inactive.
Still for that read-out and setting: the value for `CCOC(=O)c1c(NC(=S)NCCCSC)sc2c1CCCC2` was “inactive”.
For `COC(=O)c1c(NC(=S)NCCCSC)sc2c1CCCC2`, the result was inactive.
`CCOC(=O)c1c(NC(=O)Nc2ccc(Cl)c(Cl)c2)sc2c1CCCC2`: the result was inactive.
With `CCOC(=O)c1c(NC(=O)Nc2ccc(Cl)cc2)sc2c1CCCC2`, the outcome was inactive.
For `O=C(OCCc1ccccc1)c1c(NC(=S)Nc2cccc3ccccc23)sc2c1CCC2`, the result was inactive.
`COC(=O)c1c(NC(=O)Nc2ccc(Cl)cc2)sc2c1CCC2`: the outcome was inactive.
The same measure, in the same setting: the value for `CC(C)OC(=O)c1ccsc1NC(=S)Nc1cccc2ccccc12` was “inactive”; that for `O=C(O)c1c(NC(=S)Nc2cccc3ccccc23)sc2c1CCCC2` was “inactive”; that for `CCOC(=O)c1c(NC(=O)Nc2ccc(Cl)cc2)sc2c1CCC2` was “inactive”.
Take `CCOC(=O)c1c(-c2ccccc2)csc1NC(=S)Nc1cccc2ccccc12`: the result was inactive.
As for `CCOC(=O)c1c(NC(=O)Nc2cccc(Cl)c2)sc2c1CCC2`, the result was inactive.
On to `CCOC(=O)c1c(NC(=S)Nc2cccc3ccccc23)sc2c1CCN(C)C2`, for which the outcome was inactive.
Same read-out and setting: with `CCCCOC(=O)c1c(NC(=S)Nc2cccc3ccccc23)sc2c1CCCC2` the entry was “inactive”.
Take `COC(=O)c1c(NC(=S)NCCc2ccccc2)sc2c1CCCC2`: the outcome was inactive.
The same measure, in the same setting: with `CC(C)(C)OC(=O)c1c(NC(=S)Nc2cccc3ccccc23)sc2c1CCC2` the entry was “inactive”; with `COC(=O)c1c(NC(=O)Nc2ccc(Cl)cc2)sc2c1CCCC2`, “inactive”; with `CC(C)OC(=O)c1c(NC(=S)Nc2cccc3ccccc23)sc2c1CCN(C)C2`, “inactive”.

In the next assay the target is T1, Toll-like receptor 2. The experiment in a line: Agonist activity at TLR2 in HEK-Blue cells incubated for 24 hrs by Quanti-Blue based SEAP assay. Type of assay: cell-based, HEK-Blue hTLR2.
Details: not given
For the molecule `CCOC(=O)c1c(N=C(S)Nc2ccccc2)sc2c1CCCCC2`, the pEC50 (as a rule, the EC50 on a negative log10 scale, so that one unit is a factor of ten) is 4.54.
In the case of `CC(C)OC(=O)c1c(NC(=S)Nc2ccc(Br)c3ccccc23)sc2c1CCC2`, the pEC50 was 7.41.
For `CCOC(=O)c1c(NC(=O)Nc2ccc(C)cc2)sc2c1CCC2`, the pEC50 is 4.92. This pEC50 is 2.49 log units lower than that of the molecule before.
Still for that read-out and setting: the value for `CCOC(=O)c1c(NC(=S)Nc2ccccc2)sc2c1CCC2` was 5.23; that for `CCOC(=O)c1c(NC(=O)Nc2cccc3ccccc23)sc2c1CCCC2` was 5.23; that for `CC(C)COC(=O)c1c(NC(=S)Nc2cccc3ccccc23)sc2c1CCCC2` was 4.52.
The molecule `CCOC(=O)c1c(NC(=S)Nc2ccc(C)cc2)sc2c1CCCC2` had a pEC50 of 5.06.
Same read-out and setting: with `COC(=O)c1c(NC(=S)Nc2ccccc2)sc2c1CCCC2` the figure was 4.83; with `CCOC(=O)c1c(NC(=O)Nc2cccc3ccccc23)sc2c1CCC2`, 5.12; with `CCOC(=O)c1c(NC(=S)Nc2ccc(Cl)cc2)sc2c1CCC2`, 5.60.
In the case of `CCCOC(=O)c1c(NC(=S)Nc2cccc3ccccc23)sc2c1CCC2`, the pEC50 is 6.09.
The same measure, in the same setting: with `CCOC(=O)c1c(NC(=O)Nc2ccccc2)sc2c1CCC2` the figure was 4.92.
As for `COC(=O)c1c(NC(=S)Nc2ccccc2)sc2c1CCC2`, the pEC50 was 4.85.
The same measure, in the same setting: with `CC(C)OC(=O)c1c(NC(=S)Nc2cccc3ccccc23)sc2c1CCCC2` the figure was 6.85; with `CCOC(=O)c1c(NC(=O)Nc2ccc(C)cc2)sc2c1CCCC2`, 4.84; with `CCOC(=O)c1c(N=C(S)Nc2ccc(F)cc2)sc2c1CCC2`, 4.88.
As for `COC(=O)c1c(NC(=S)Nc2ccc(C(F)(F)F)cc2)sc2c1CCCC2`, the pEC50 is 4.47.
Take `CCOC(=O)c1c(NC(=O)Nc2ccccc2)sc2c1CCCCC2`: the pEC50 is 4.93.
In turn, `CCOC(=O)c1c(NC(=S)Nc2ccc(F)cc2)sc2c1CCCC2` gave a pEC50 of 4.92.
For `CCOC(=O)c1c(NC(=S)Nc2cccc3ccccc23)sc2c1CCC(C)C2` (configuration not stated), the pEC50 was 5.76. This pEC50 is 0.84 log units higher than that of the molecule before.
`CC(C)COC(=O)c1c(NC(=S)Nc2cccc3ccccc23)sc2c1CCC2` showed a pEC50 of 4.55.
Turning to `CCOC(=O)c1c(NC(=S)Nc2ccc(C(F)(F)F)cc2)sc2c1CCCC2`, the pEC50 was 4.92.
The same measure, in the same setting: the value for `COC(=O)c1c(NC(=S)Nc2ccc(C)cc2)sc2c1CCCC2` was 4.99; that for `CC(C)OC(=O)c1c(NC(=S)Nc2ccc(F)c3ccccc23)sc2c1CCCC2` was 7.46; that for `COC(=O)c1c(NC(=S)Nc2cccc3ccccc23)sc2c1CCC2` was 5.45.
In turn, `CCOC(=O)c1c(NC(=S)Nc2cccc3ccccc23)sc2c1CCCCC2` showed a negative-log EC50 (pEC50) of 5.63.
Same read-out and setting: the value for `COC(=O)c1c(NC(=S)Nc2cccc3ccccc23)sc2c1CCCC2` was 5.13; that for `CCOC(=O)c1c(NC(=S)Nc2ccc(-c3ccccc3)cc2)sc2c1CCC2` was 5.15.

A further assay concerns the target T1, Toll-like receptor 2. In words: Binding affinity to recombinant human TLR2 expressed in H5 cells by surface plasmon resonance method.
Details: not given
(Surface plasmon resonance follows binding to a sensor surface in real time, without labels.)
Consider `CCOC(=O)c1c(NC(=O)Nc2ccccc2)sc2c1CCCCC2`, for which the pKd (usually the negative decadic logarithm of the Kd, by convention in mol/L) was 5.05.
